Source: patent publication US9738600B2, “ROR gamma (RORγ) modulators” (LEAD PHARMA CEL MODELS IP B.V., priority 2013, dated 2017)

Key:
[1] = test system: IL-17A production in anti-CD3/anti-CD28 stimulated peripheral blood mononuclear cells (PBMCs); test: Peripheral blood mononuclear cell (PBMC) IL-17 assay; assay type: cell-based; settings: Homo sapiens, 120 h, inhibition of IL-17A production, 5 days, IL-17 ELISA, read-out: mean pIC50 (converted)
Description: The assay procedure and results are described below.
This assay is designed to measure the levels of IL-17A secreted from anti-CD3/anti-CD28 stimulated PBMCs with the aim of measuring RORγ mediated inhibition of IL-17A production.
The assay medium consists of 90% RPMI 1640 (Lonza), 10% heat inactivated fetal bovin serum (FBS, Lonza) and 100 U/mL penicillin/streptomycin solution.
Anti-CD3 antibody (BD Pharmingen) was diluted to 10 μg/ml in PBS (Lonza). 30 μL of 10 μg/ml anti-CD3 solution was added to the inner 60 wells, excluding any negative control wells, of a 96-well cell culture treated U-bottom plate (Greiner). Plates were incubated overnight (16-24 hours) at 37° C. and 5% CO2.
Peripheral blood mononuclear cells were separated from buffy coats (Sanquin) using Ficoll-Paque PREMIUM separation medium (GE Healthcare Life Sciences) according to manufacturer's protocol and re-suspended in assay medium at 37° C.
Test compounds were diluted, starting from a 10 mM dimethylsulfoxide (DMSO) stock solution, to serial dilutions in DMSO at 200× the final test concentration. Subsequently, these solutions were diluted in two dilution steps in assay medium to 10× the final test concentration. The DMSO concentration of the 10× test compound solution was 5%.
Anti-CD28 antibody (BD Pharmingen) was diluted to 20 μg/mL in PBS. The PBMCs were diluted to a concentration of 2.5×10^6 cells/mL in assay medium at 37° C.
For compound screening, the anti-CD3 coated plates were washed three times with PBS, the wells were subsequently aspirated using vacuum. To each screening well 80 μL of the PBMC suspension, 10 μL of the anti-CD28 solution and 10 μL of the 10× test compound solution was added, resulting in the final test concentration with 0.5% DMSO. All outer wells were filled with assay medium to prevent evaporation. Plates were incubated for 5 days at 37° C. and 5% CO2.
After incubation the plates were spun down at 1500 rpm for 4 minutes and the supernatant was collected. Subsequently, the IL-17A levels in the supernatants was determined using an IL-17 ELISA kit (human IL-17 DuoSet, R&D systems) according to manufacturer's protocol.
The half maximum inhibitory concentration (IC50) values for the test compounds were calculated from the IL-17A signal using GraphPad Prism software (GraphPad Software).

RORγ = biological target: T1, RORγ (Homo sapiens, UniProt P51449); test: RORγ GAL4 reporter gene assay; settings: mean pIC50, inhibition of RORγ (GAL4-RORγ-LBD) in 293FT cells, luciferase readout, overnight incubation
T1 sequence (P51449 269-508 limits assumed): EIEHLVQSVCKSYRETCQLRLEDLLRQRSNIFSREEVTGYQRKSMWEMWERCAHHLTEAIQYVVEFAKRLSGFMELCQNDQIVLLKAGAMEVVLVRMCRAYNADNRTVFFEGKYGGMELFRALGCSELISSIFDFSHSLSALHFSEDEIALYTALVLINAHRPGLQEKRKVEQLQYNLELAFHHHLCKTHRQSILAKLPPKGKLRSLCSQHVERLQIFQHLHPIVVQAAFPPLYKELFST
Description: The RORγ ligand-binding domain (LBD) was fused to the yeast GAL4 DNA binding domain (DBD) and placed under the control of the human cytomegalovirus (CMV) immediate early promoter, using expression vector pFN26A (Promega) and standard recombinant DNA cloning methods.
To monitor the inhibitory effect of compounds on RORγ, a transcriptional reporter construct was used. The pGL4.35 vector (Promega) contains nine copies of the GAL4 Upstream Activator Sequence (UAS). This sequence drives the transcription of the luciferase reporter gene luc2P in response to binding of a fusion protein containing the GAL4 DNA binding domain, as for example expressed by the GAL4-RORγ-LBD and GAL4-VP16 expression vectors described above.
The day after transfection, cells were plated into 96 well plates, test compound was added and the plates were incubated overnight. Subsequently, the firefly luciferase activity was quantified using luciferase detection reagent and luminescence readout.
1500 μL of this reagent mixture was added to 5 μg of GAL4 fusion protein expression vector and 5 μg of the transcriptional reporter construct, and incubated at RT for 20 minutes.
Subsequently, the cells were washed with Phosphate Buffered Saline (PBS) (Lonza), after which the PBS was removed. To dissociate the cells, 1 ml of TrypLE Express (Invitrogen) was added to the flask, followed by incubation at RT until the cells visually started to detach. Cells were collected in 5 mL of assay medium (DMEM culture medium (Lonza), 10% dialyzed FBS (Invitrogen) and Pen/Strep (Lonza)) to achieve a single cell suspension. 10×10^6 cells were spun down and re-suspended in 10 mL of assay medium. Subsequently, the cell suspension was added to the transfection mix tube, and then transferred as a whole to a T75 flask (Greiner), followed by overnight (16-24 hours) incubation at 37° C. and 5% CO2.
For compound screening, the cells were harvested (as described above) and counted. […] 80 μL of cell suspension (60,000 cells) was plated per well into a white, flat bottom, tissue culture treated, 96 well screening plates (Greiner).
Test compounds were diluted, starting from a 10 mM dimethylsulfoxide (DMSO) stock solution, to serial dilutions in DMSO at 500× the final test concentration. Subsequently, these solutions were diluted to 5× the final test concentration in two 10-fold-dilution steps in assay medium. The final DMSO concentration of the 5× test compound solution was 1%. 20 μL of the 5× test compound solution was added to each test well of the 96 well plate previously plated with 80 μl cell suspension, resulting in the final test concentration with 0.2% DMSO.
The plates were incubated overnight (16-24 hours) at 37° C. and 5% CO2.
For the luciferase readout, the luciferase reagent (Britelite Plus, Perkin Elmer) was brought to RT. […] The luciferase luminescence signal was measured using a Wallac Victor Microplate Reader (Perkin Elmer).
The half maximum inhibitory concentration (IC50) values for the test compounds were calculated from the luciferase signal using GraphPad Prism software (GraphPad Software).

| Structure (SMILES) | IC50 (RORγ) [µM] | IC50 [1] [µM] |
| --- | --- | --- |
| CCS(=O)(=O)c1ccc(CC(=O)Nc2ccc(C(O)(C(F)(F)F)C(F)(F)F)cc2)cc1 [Example 2, 2-(4-(ethylsulfonyl)phenyl)-N-(4-(1,1,1,3,3,3-hexafluoro-2-hydroxypropan-2-yl)phenyl)acetamide] | – | ≤ 1 |
| CCS(=O)(=O)c1ccc(CC(=O)Nc2ccc(C(O)(C(F)(F)F)C(F)(F)F)c(Cl)c2)cc1 [Example 84, N-(3-chloro-4-(1,1,1,3,3,3-hexafluoro-2-hydroxypropan-2-yl)phenyl)-2-(4-(ethylsulfonyl)phenyl)acetamide] | ≤ 1 | – |
| CCS(=O)(=O)c1ccc(CC(=O)Nc2ccc(C(OCC(F)(F)F)(C(F)(F)F)C(F)(F)F)cc2)cc1 [Example 112, 2-(4-(ethylsulfonyl)phenyl)-N-(4-(1,1,1,3,3,3-hexafluoro-2-(2,2,2-trifluoroethoxy)propan-2-yl)phenyl)acetamide] | ≤ 1 | – |
| CC(C)(C)CC(O)(c1ccc(NC(=O)Cc2ccc(S(=O)(=O)NC3CC3)cc2)cc1)C(F)(F)F (stereo not drawn) [Example 94, 2-(4-(N-cyclopropylsulfamoyl)phenyl)-N-(4-(1,1,1-trifluoro-2-hydroxy-4,4-dimethylpentan-2-yl)phenyl)acetamide] | ≤ 0.1 | – |
| Cc1cc(C(O)(C(F)(F)F)C(F)(F)F)ccc1NC(=O)Cc1ccc(S(=O)(=O)CC2CC2)cc1 [Example 43, 2-(4-((cyclopropylmethyl)sulfonyl)phenyl)-N-(4-(1,1,1,3,3,3-hexafluoro-2-hydroxypropan-2-yl)-2-methylphenyl)acetamide] | ≤ 0.1 | – |
| CCCOC(c1ccc(NC(=O)Cc2ccc(S(=O)(=O)CC3CC3)cc2)cc1)(C(F)(F)F)C(F)(F)F [Example 60, 2-(4-((cyclopropylmethyl)sulfonyl)phenyl)-N-(4-(1,1,1,3,3,3-hexafluoro-2-propoxypropan-2-yl)phenyl)acetamide] | ≤ 0.01 | – |
| CCC(O)(c1ccc(NC(=O)Cc2ccc(S(=O)(=O)NC3CC3)cc2)cc1)C(F)(F)F (stereo not drawn) [Example 79, 2-(4-(N-cyclopropylsulfamoyl)phenyl)-N-(4-(1,1,1-trifluoro-2-hydroxybutan-2-yl)phenyl)acetamide] | ≤ 1 | – |

Second part, led by results:

| IC50 (RORγ) [µM] | Structure (SMILES) | IC50 [1] [µM] |
| --- | --- | --- |
| ≤ 0.1 | O=C(Cc1ccc(S(=O)(=O)NC2CC2)cc1)Nc1ccc(C(O)(C(F)(F)F)C(F)(F)F)c(F)c1 [Example 33, 2-(4-(N-cyclopropylsulfamoyl)phenyl)-N-(3-fluoro-4-(1,1,1,3,3,3-hexafluoro-2-hydroxypropan-2-yl)phenyl)acetamide] | ≤ 1 |
| ≤ 0.1 | O=C(Cc1ccc(S(=O)(=O)CC2CC2)cc1)Nc1ccc(C(O)(C(F)(F)F)C(F)(F)F)cn1 [Example 107, 2-(4-((cyclopropylmethyl)sulfonyl)phenyl)-N-(5-(1,1,1,3,3,3-hexafluoro-2-hydroxypropan-2-yl)pyridin-2-yl)acetamide] | ≤ 1 |
| ≤ 0.1 | O=C(Cc1ccc(S(=O)(=O)NC2CC2)cc1)Nc1ccc(C(O)(C(F)(F)F)C(F)(F)F)cc1F [Example 35, 2-(4-(N-cyclopropylsulfamoyl)phenyl)-N-(2-fluoro-4-(1,1,1,3,3,3-hexafluoro-2-hydroxypropan-2-yl)phenyl)acetamide] | ≤ 1 |
| ≤ 1 | CCS(=O)(=O)c1ccc(CC(=O)Nc2ccc(C(O)(C(C)C)C(F)(F)F)cc2)cc1 (stereo not drawn) [Example 65, 2-(4-(ethylsulfonyl)phenyl)-N-(4-(1,1,1-trifluoro-2-hydroxy-3-methylbutan-2-yl)phenyl)acetamide] | – |
| ≤ 0.1 | O=C(Cc1ccc(S(=O)(=O)CC2CC2)cc1)Nc1ccc(C(OCC(F)(F)F)(C(F)(F)F)C(F)(F)F)cc1 [Example 113, 2-(4-((cyclopropylmethyl)sulfonyl)phenyl)-N-(4-(1,1,1,3,3,3-hexafluoro-2-(2,2,2-trifluoroethoxy)propan-2-yl)phenyl)acetamide] | – |
| ≤ 1 | CCS(=O)(=O)c1ccc(CC(=O)Nc2ccc(C(O)(C(F)(F)F)C(F)(F)F)cc2F)cc1 [Example 28, 2-(4-(ethylsulfonyl)phenyl)-N-(2-fluoro-4-(1,1,1,3,3,3-hexafluoro-2-hydroxypropan-2-yl)phenyl)acetamide] | – |
| ≤ 1 | CC(C)C(O)(c1ccc(NC(=O)Cc2ccc(S(=O)(=O)NC3CC3)cc2)cc1)C(F)(F)F (stereo not drawn) [Example 95, 2-(4-(N-cyclopropylsulfamoyl)phenyl)-N-(4-(1,1,1-trifluoro-2-hydroxy-3-methylbutan-2-yl)phenyl)acetamide] | – |
| ≤ 1 | CCS(=O)(=O)c1ccc(CC(=O)Nc2ccc(C(O)(CC3CCCC3)C(F)(F)F)cc2)cc1 (stereo not drawn) [Example 86, N-(4-(3-cyclopentyl-1,1,1-trifluoro-2-hydroxypropan-2-yl)phenyl)-2-(4-(ethylsulfonyl)phenyl)acetamide] | – |
| ≤ 1 | CCCCC(O)(c1ccc(NC(=O)Cc2ccc(S(=O)(=O)CC)cc2)cc1)C(F)(F)F (stereo not drawn) [Example 72, 2-(4-(ethylsulfonyl)phenyl)-N-(4-(1,1,1-trifluoro-2-hydroxyhexan-2-yl)phenyl)acetamide] | – |
| ≤ 1 | CCS(=O)(=O)c1ccc(CC(=O)Nc2ccc(C(O)(C(F)(F)F)C(F)(F)F)cn2)cc1 [Example 21, 2-(4-(ethylsulfonyl)phenyl)-N-(5-(1,1,1,3,3,3-hexafluoro-2-hydroxypropan-2-yl)pyridin-2-yl)acetamide] | – |
| ≤ 1 | CCS(=O)(=O)c1ccc(C(C)C(=O)Nc2ccc(C(O)(C(F)(F)F)C(F)(F)F)cc2)cc1 (stereo not drawn) [Example 5, 2-(4-(ethylsulfonyl)phenyl)-N-(4-(1,1,1,3,3,3-hexafluoro-2-hydroxypropan-2-yl)phenyl)propanamide] | – |
